Values joined by “and” are separate entries in the source; they are usually repeats but may differ in a detail not shown here. Identical values can stand only once.
What was measured:
[1] = tested on: ddY male mice; test: Anti-hypoxic activity: survival time of mice in 4% oxygen / 96% nitrogen after oral administration; format: in vivo
Protocol: Test compounds A1, A2, A3, B1 and B2 were put to use after dissolution in distilled water. Test compounds C1 and C2 were put to use after suspending them in 0.5% solution of methylcellulose.
The test was carried out according to the method described in Japanese Journal of Pharmacology, Vol. 62, Page 81, 1993.
To one group (6-10 animals) of ddY male mice having an age of 4-5 weeks was orally administered a test compound dissolved in distilled water or suspended in 0.5% methyl cellulose solution. Thirty minutes after the administration, the mice were introduced into a glass container at a volume of 300 mL, and a gaseous mixture composed of 4% of oxygen and 96% of nitrogen was passed though the glass container at a flow rate of 5 L/minute. The period of time from the start of passing the gaseous mixture to the death of the mice was measured. To the control group, distilled water was administered orally.

[2] = tested on: nerve growth factor; conditions: WO96/12717; cited from earlier work
[3] = tested on: in-brain acetylcholine; conditions: Society for Neuroscience Abstracts 21, 947, 1995; cited from earlier work
[4] = tested on: neuronal death caused by amyloid-beta-protein; conditions: Society for Neuroscience Abstracts 24, Part 1, 228, 1998; cited from earlier work
[5] = Society for Neuroscience Abstracts 21, 947, 1995; cited from earlier work
[6] = reported in the literature; cited from earlier work
[7] = 10 mg/kg oral, alone, survival time vs control x100, 30 min after administration
[8] = Compound (1) 10 mg/kg oral in combination with Compound B1 (Donepezil) 3 mg/kg
[9] = Compound (1) 10 mg/kg oral in combination with Compound B2 (Tacrine) 10 mg/kg
[10] = 100 mg/kg oral, alone, survival time vs control x100

With `CN(CCO)CCCOCCc1ccc2sccc2c1.CN(CCO)CCCOCCc1ccc2sccc2c1.O=C(O)/C=C/C(=O)O` [Compound A2, 2-[[3-(2-benzo[b]thiophen-5-yl-ethoxy)propyl](methyl)amino]-1-ethanol.1/2fumarate] the “Anti-hypoxic activity (%)” value [1, 7] was 114%, the “Anti-hypoxic activity (%)” value [1, 8] was 168% and the “Anti-hypoxic activity (%)” value [1, 9] was 172%.
For `CCN(CC)CCOC[C@H](O)c1ccc2sccc2c1.Cl` [Compound A1, (R)-1-{benzo[b]thiophen-5-yl}-2-[2-(N,N-diethylamino}ethoxy]ethanol hydrochloride], the “Anti-hypoxic activity (%)” value [1, 7] was 137%, the “Anti-hypoxic activity (%)” value [1, 8] was 211% and the “Anti-hypoxic activity (%)” value [1, 9] was 172%. The “effect on the action of nerve growth factor” value [2] was “exhibits an increasing effect”, the “release of in-brain acetylcholine” value [3] was “promotes the release of in-brain acetylcholine” and the “protecting effect on the neuronal death caused by amyloid-beta-protein” value [4] was “exhibits a protecting effect”. The anti-amnestic activity [5] was “an anti-amnestic activity” and the anti-hypoxic activity [6] was “has an anti-hypoxic activity”.
In the case of `Cl.Nc1c2c(nc3ccccc13)CCCC2` [Compound B2, 1,2,3,4-tetrahydro-9-acridinamine hydrochloride], the “Anti-hypoxic activity (%)” value ([1]; 10 mg/kg oral, alone, survival time vs control x100, 30 min after administration, hydrochloride) is given as 127% and 107% and the anti-hypoxic activity [6] is given as “anti-hypoxic activity is shown”.
For `COC1=C(OC)C(=O)C(CCCCCCCCCCO)=C(C)C1=O` [Compound C1, Idebenone], the “Anti-hypoxic activity (%)” value [1, 10] was 104%, the “Anti-hypoxic activity (%)” value ([1]; 300 mg/kg oral, alone, survival time vs control x100) was 108% and the “Anti-hypoxic activity (%)” value ([1]; Compound (1) 300 mg/kg oral in combination with Compound B1 (Donepezil) 3 mg/kg) was 100%.
With `COc1cc2c(cc1OC)C(=O)C(CC1CCN(Cc3ccccc3)CC1)C2` (centres unmarked) [Compound B1, Donepezil] the “Anti-hypoxic activity (%)” value ([1]; 3 mg/kg oral, alone, survival time vs control x100) was 119% and 104%.
For `Cl.FC(F)(F)c1cccc(C2=CCN(CCc3ccc4ccccc4c3)CC2)c1` [Compound C2, SR57746A], the “Anti-hypoxic activity (%)” value ([1]; 30 mg/kg oral, alone, survival time vs control x100) was 100%, the “Anti-hypoxic activity (%)” value [1, 10] was 123% and the “Anti-hypoxic activity (%)” value ([1]; Compound (1) 100 mg/kg oral in combination with Compound B1 (Donepezil) 3 mg/kg) was 111%.
For `O=C(O)/C=C\C(=O)O.OC1CN(CCCOCCc2ccc3sccc3c2)C1` [Compound A3, 1-[3-(2-(1-benzothiophen-5-yl)ethoxy]-propyl]-3-azetidinol-maleate], the “Anti-hypoxic activity (%)” value [1, 7] was 111%, the “Anti-hypoxic activity (%)” value [1, 8] was 190% and the “Anti-hypoxic activity (%)” value [1, 9] was 149%.
